Assay results published in publication PMC6723059, “A Collection of Bioactive Nitrogen-Containing Molecules from the Marine Sponge Acanthostrongylophora ingens” (Marine Drugs, 2019).

Molecular target: T1, cyclin-dependent kinase 2 (CDK2/cyclin A) (Homo sapiens, UniProt P24941)
T1 construct: with cyclin A
Experiment: in vitro protein kinase activity assay, […] ATP
Assay type: biochemical

O=C1N[C@@H](Cc2ccccc2)C(=O)N2CCC[C@H]12 [compound 6, cyclo(D-Pro-L-Phe)]
IC50: 1000 nM
